Assay results taken from patent US12365687B2 (Hoffmann-La Roche Inc., priority 2021, dated 2025).

Tests used:
[1] = target: human GABAA α5β2γ1 receptor (Homo sapiens (Human), UniProt P31644+Q8N1C3); assay: Radioligand binding assay for γ1-containing GABAA subtypes, [3H]RO7239181 competition (α5β2γ1)
[2] = target: human GABAA α2β2γ1 receptor (Homo sapiens (Human), UniProt P47869+Q8N1C3); assay: Radioligand binding assay for γ1-containing GABAA subtypes, [3H]RO7239181 competition (α2β2γ1)
[3] = target: human GABAA α1β3γ2 receptor (Homo sapiens (Human), UniProt P14867+P18507); assay: Radioligand binding assay for γ2-containing GABAA subtypes, [3H]Flumazenil competition (α1β3γ2); details: for γ2/γ1 Selectivity Ratio: Ki α1β3γ2 (nM)/Ki α2β2γ1 (nM); for LogSel: Log[Ki α1β3γ2 (nM)/Ki α2β2γ1 (nM)]
[4] = target: α2β2γ1 GABAA receptor subtype (Homo sapiens (Human), UniProt P47869+Q8N1C3); assay: Two-electrode voltage clamp electrophysiology in Xenopus oocytes expressing GABAA receptors (modulation of GABA EC20 current); assay type: cell-based; details: for Efficacy (GABA)%: % modulation of GABA EC20 = 100*(Fold increase-1), α2β2γ1 oocytes, compound at approx. 30-fold Ki; for Fold increase h-GABA-A α2β2γ1 oocyte @ 30-fold Ki: Xenopus oocytes expressing α2β2γ1, compound at approx. 30-fold its Ki α2β2γ1, GABA EC20 current
Summary of the method: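 Two-electrode voltage clamp at −80 mV, room temperature, 3-5 days after mRNA injection into oocytes. GABA applied at EC20 for 1.5 min, twice, with compound during second application; at least 3 oocytes per concentration. Efficacy = extremum of point-by-point current ratio, expressed as 100×(fold increase−1).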

[5] = Ki h-GABAA α2β2γ1, [3H]RO7239181 competition binding, human GABAA α2β2γ1
[6] = Ki h-GABAA α2β2γ1, displacement of [3H]RO7239181, membranes of HEK293F cells expressing human receptors, means of two determinations

CC1CN(C(=O)c2nc3n(n2)-c2ccc(Cl)c(Cl)c2C(c2ncccc2F)=N[C@H]3C)C1 [Example 87, [(4S)-7,8-dichloro-6-(3-fluoro-2-pyridyl)-4-methyl-4H-[1,2,4]triazolo[1,5-a][1,4]benzodiazepin-2-yl]-(3-methylazetidin-1-yl)methanone]
Ki [1]: 5.5 nM | Ki [2, 5]: 55.2 nM | Ki [2, 6]: 55.2 nM | Ki [3]: 3290 nM | γ2/γ1 Selectivity Ratio [3]: 59.7 | LogSel [3]: 1.78 | Efficacy (GABA)% [4]: 84% | Fold increase h-GABA-A α2β2γ1 oocyte @ 30-fold Ki [4]: 1.84

C[C@@H]1N=C(c2c(F)cccc2F)c2c(ccc(C(F)(F)F)c2Cl)-n2nc(C(=O)NC[C@@H](C)O)nc21 [Example 105, (4S)-7-chloro-6-(2,6-difluorophenyl)-N-[(2R)-2-hydroxypropyl]-4-methyl-8-(trifluoromethyl)-4H-[1,2,4]triazolo[1,5-a][1,4]benzodiazepine-2-carboxamide]
Ki [1]: 5.05 nM | Ki [2, 5]: 13.9 nM | Ki [2, 6]: 13.9 nM | Ki [3]: 5130 nM | γ2/γ1 Selectivity Ratio [3]: 368.4 | LogSel [3]: 2.57 | Efficacy (GABA)% [4]: 98% | Fold increase h-GABA-A α2β2γ1 oocyte @ 30-fold Ki [4]: 1.98

C[C@@H]1N=C(c2c(F)cccc2F)c2c(ccc(Cl)c2Cl)-n2nc(N3CC(C#N)C3)nc21 [Example 77, 1-[(4S)-7,8-dichloro-6-(2,6-difluorophenyl)-4-methyl-4H-[1,2,4]triazolo[1,5-a][1,4]benzodiazepin-2-yl]azetidine-3-carbonitrile]
Ki [1]: 1 nM | Ki [2, 5]: 10.2 nM | Ki [2, 6]: 10.2 nM | Ki [3]: 279 nM | γ2/γ1 Selectivity Ratio [3]: 27.2 | LogSel [3]: 1.44 | Efficacy (GABA)% [4]: 69% | Fold increase h-GABA-A α2β2γ1 oocyte @ 30-fold Ki [4]: 1.69

O=C(c1nc2n(n1)-c1ccc(Cl)c(Cl)c1C(c1c(F)cccc1F)=NC2)N1CC(O)C1 [Example 24, [7,8-dichloro-6-(2,6-difluorophenyl)-4H-[1,2,4]triazolo[1,5-a][1,4]benzodiazepin-2-yl]-(3-hydroxyazetidin-1-yl)methanone]
Ki [1]: 0.45 nM | Ki [2, 5]: 3.1 nM | Ki [2, 6]: 3.14 nM | Ki [3]: 273 nM | γ2/γ1 Selectivity Ratio [3]: 86.7 | LogSel [3]: 1.94 | Efficacy (GABA)% [4]: 88% | Fold increase h-GABA-A α2β2γ1 oocyte @ 30-fold Ki [4]: 1.88

CO[C@H]1CCN(C(=O)c2nc3n(n2)-c2ccc(Cl)c(Cl)c2C(c2c(F)cccc2F)=N[C@H]3C)C1 [Example 45, [(4S)-7,8-dichloro-6-(2,6-difluorophenyl)-4-methyl-4H-[1,2,4]triazolo[1,5-a][1,4]benzodiazepin-2-yl]-[(3S)-3-methoxypyrrolidin-1-yl]methanone]
Ki [1]: 2.2 nM | Ki [2, 5]: 5.4 nM | Ki [2, 6]: 5.39 nM | Ki [3]: 1350 nM | γ2/γ1 Selectivity Ratio [3]: 250.3 | LogSel [3]: 2.40 | Efficacy (GABA)% [4]: 41% | Fold increase h-GABA-A α2β2γ1 oocyte @ 30-fold Ki [4]: 1.41

[2H]C([2H])([2H])OC1CN(C(=O)c2nc3n(n2)-c2ccc(C(F)(F)F)c(Cl)c2C(c2ncccc2F)=N[C@H]3C)C1 [Example 104, [(4S)-7-chloro-6-(3-fluor-2-pyridyl)-4-methyl-8-(trifluoromethyl)-4H-[1,2,4]triazolo[1,5-a][1,4]benzodiazepin-2-yl]-[3-(trideuteriomethoxy)azetidin-1-yl]methanone]
Ki [1]: 6.36 nM | Ki [2, 5]: 37.3 nM | Ki [2, 6]: 37.3 nM | Ki [3]: 6300 nM | γ2/γ1 Selectivity Ratio [3]: 168.8 | LogSel [3]: 2.23 | Efficacy (GABA)% [4]: 117% | Fold increase h-GABA-A α2β2γ1 oocyte @ 30-fold Ki [4]: 2.17

C[C@@H]1N=C(c2c(F)cccc2F)c2c(ccc(Cl)c2Cl)-n2nc(N3CC(O)C3)nc21 [Example 66, 1-[(4S)-7,8-dichloro-6-(2,6-difluorophenyl)-4-methyl-4H-[1,2,4]triazolo[1,5-a][1,4]benzodiazepin-2-yl]azetidin-3-ol]
Ki [1]: 1.24 nM | Ki [2, 5]: 6.1 nM | Ki [2, 6]: 6.1 nM | Ki [3]: 241 nM | γ2/γ1 Selectivity Ratio [3]: 39.7 | LogSel [3]: 1.60 | Efficacy (GABA)% [4]: 58% | Fold increase h-GABA-A α2β2γ1 oocyte @ 30-fold Ki [4]: 1.58

COc1nc2n(n1)-c1ccc(Cl)c(Cl)c1C(c1c(F)cccc1F)=N[C@H]2C [Example 91, (4S)-7,8-dichloro-6-(2,6-difluorophenyl)-2-methoxy-4-methyl-4H-[1,2,4]triazolo[1,5-a][1,4]benzodiazepine]
Ki [1]: 1.5 nM | Ki [2, 5]: 23.7 nM | Ki [2, 6]: 23.7 nM | Ki [3]: 752 nM | γ2/γ1 Selectivity Ratio [3]: 31.7 | LogSel [3]: 1.50 | Efficacy (GABA)% [4]: 75% | Fold increase h-GABA-A α2β2γ1 oocyte @ 30-fold Ki [4]: 1.75

C[C@@H]1N=C(c2c(F)cccc2F)c2c(ccc(Cl)c2Cl)-n2nc(C(=O)NCC#N)nc21 [Example 56, (4S)-7,8-dichloro-N-(cyanomethyl)-6-(2,6-difluorophenyl)-4-methyl-4H-[1,2,4]triazolo[1,5-a][1,4]benzodiazepine-2-carboxamide]
Ki [1]: 0.85 nM | Ki [2, 5]: 4.6 nM | Ki [2, 6]: 4.63 nM | Ki [3]: 432 nM | γ2/γ1 Selectivity Ratio [3]: 93.4 | LogSel [3]: 1.97 | Efficacy (GABA)% [4]: 72% | Fold increase h-GABA-A α2β2γ1 oocyte @ 30-fold Ki [4]: 1.72

C[C@@H]1N=C(c2ncccc2F)c2c(ccc(C(F)(F)F)c2Cl)-n2nc(C(=O)N3CC4(CCO4)C3)nc21 [Example 119, 1-oxa-6-azaspiro[3.3]heptan-6-yl-[(4S)-7-chloro-6-(3-fluoro-2-pyridyl)-4-methyl-8-(trifluoromethyl)-4H-[1,2,4]triazolo[1,5-a][1,4]benzodiazepin-2-yl]methanone]
Ki [1]: 10.3 nM | Ki [2, 5]: 80.9 nM | Ki [2, 6]: 80.9 nM | Ki [3]: 12600 nM | γ2/γ1 Selectivity Ratio [3]: 156.1 | LogSel [3]: 2.19 | Efficacy (GABA)% [4]: 124% | Fold increase h-GABA-A α2β2γ1 oocyte @ 30-fold Ki [4]: 2.24

C[C@@H]1N=C(c2ncccc2F)c2c(ccc(Cl)c2Cl)-n2nc(C(=O)N3CC[C@@H](F)C3)nc21 [Example 78, [(4S)-7,8-dichloro-6-(3-fluoro-2-pyridyl)-4-methyl-4H-[1,2,4]triazolo[1,5-a][1,4]benzodiazepin-2-yl]-[(3R)-3-fluoropyrrolidin-1-yl]methanone]
Ki [1]: 18.6 nM | Ki [2, 5]: 96.3 nM | Ki [2, 6]: 96.3 nM | Ki [3]: 6900 nM | γ2/γ1 Selectivity Ratio [3]: 71.6 | LogSel [3]: 1.86 | Efficacy (GABA)% [4]: 98% | Fold increase h-GABA-A α2β2γ1 oocyte @ 30-fold Ki [4]: 1.98

Cc1nc2n(n1)-c1ccc(C(F)(F)F)c(Cl)c1C(c1c(F)cccc1F)=N[C@H]2C [Example 29, (4S)-7-chloro-6-(2,6-difluorophenyl)-2,4-dimethyl-8-(trifluoromethyl)-4H-[1,2,4]triazolo[1,5-a][1,4]benzodiazepine]
Ki [1]: 0.69 nM | Ki [2, 5]: 10 nM | Ki [2, 6]: 10 nM | Ki [3]: 1090 nM | γ2/γ1 Selectivity Ratio [3]: 109.1 | LogSel [3]: 2.04 | Efficacy (GABA)% [4]: 80% | Fold increase h-GABA-A α2β2γ1 oocyte @ 30-fold Ki [4]: 1.80

CNC(=O)c1cn2c(n1)CN=C(c1ncccc1F)c1c-2ccc(Cl)c1Cl [Example 12, 7,8-dichloro-6-(3-fluoro-2-pyridyl)-N-methyl-4H-imidazo[1,2-a][1,4]benzodiazepine-2-carboxamide]
Ki [1]: 9.3 nM | Ki [2, 5]: 36.7 nM | Ki [2, 6]: 36.7 nM | Ki [3]: 506 nM | γ2/γ1 Selectivity Ratio [3]: 13.8 | LogSel [3]: 1.14 | Efficacy (GABA)% [4]: 125% | Fold increase h-GABA-A α2β2γ1 oocyte @ 30-fold Ki [4]: 2.25

C[C@@H]1N=C(c2c(F)cccc2F)c2c(ccc(Cl)c2Cl)-n2nc(N3CCCC3=O)nc21 [Example 50, 1-[(4S)-7,8-dichloro-6-(2,6-difluorophenyl)-4-methyl-4H-[1,2,4]triazolo[1,5-a][1,4]benzodiazepin-2-yl]pyrrolidin-2-one]
Ki [1]: 0.89 nM | Ki [2, 5]: 4.5 nM | Ki [2, 6]: 4.5 nM | Ki [3]: 376 nM | γ2/γ1 Selectivity Ratio [3]: 83.5 | LogSel [3]: 1.92 | Efficacy (GABA)% [4]: 60% | Fold increase h-GABA-A α2β2γ1 oocyte @ 30-fold Ki [4]: 1.60

[2H]C([2H])([2H])OC1CN(C(=O)c2nc3n(n2)-c2ccc(Cl)c(Cl)c2C(c2ncccc2F)=N[C@H]3C)C1 [Example 39, [(4S)-7,8-dichloro-6-(3-fluoro-2-pyridyl)-4-methyl-4H-[1,2,4]triazolo[1,5-a][1,4]benzodiazepin-2-yl]-[3-(trideuteriomethoxy)azetidin-1-yl]methanone]
Ki [1]: 6.85 nM | Ki [2, 5]: 17.7 nM | Ki [2, 6]: 17.7 nM | Ki [3]: 4200 nM | γ2/γ1 Selectivity Ratio [3]: 237.9 | LogSel [3]: 2.38 | Efficacy (GABA)% [4]: 89% | Fold increase h-GABA-A α2β2γ1 oocyte @ 30-fold Ki [4]: 1.89

COC1CN(C(=O)c2nc3n(n2)-c2ccc(Cl)c(Cl)c2C(c2c(F)cccc2F)=NC3)C1 [Example 11, [7,8-dichloro-6-(2,6-difluorophenyl)-4H-[1,2,4]triazolo[1,5-a][1,4]benzodiazepin-2-yl]-(3-methoxyazetidin-1-yl)methanone]
Ki [1]: 0.84 nM | Ki [2, 5]: 2.7 nM | Ki [2, 6]: 2.71 nM | Ki [3]: 451 nM | γ2/γ1 Selectivity Ratio [3]: 166.3 | LogSel [3]: 2.22 | Efficacy (GABA)% [4]: 62% | Fold increase h-GABA-A α2β2γ1 oocyte @ 30-fold Ki [4]: 1.62
